For experiment [1], the target named is Lysophosphatidic acid receptor 1 (Homo sapiens, UniProt Q92633). Put plainly: LPAR1 Calcium Flux Assays: A cDNA encoding the human LPAR1 receptor is synthesized and cloned into pDNA3 expression plasmid. The plasmid is transfected in U937 cells using Lipofectamine 2000 (Invitrogen Corp., USA). Clones stably expressing human LPAR1 are selected using […] and identified as cells that show Ca-influx in response to LPA.U937 cells overexpressing human LPAR1 are seeded at 100,000 cells per well in a 96-well fibronectin (10 ug/ml) coated plate in 60 μl of assay buffer (HBSS containing 20 mM HEPES and 0.2% BSA) and then incubated for 60 minutes. Then 50 μl of a calcium indicator dye (Fluo-4 NW, Molecular Probes) are added to each well and incubation continued for 30 minutes at 37° C. and then 30 minutes at room temperature. 50 μl of test compounds in 4% DMSO are added to the cells and incubation continued at room temperature for 40 minutes. Cells are the stimulated by the addition of 50 μl of 128 nM LPA and intracellular calcium is measured using the FLIPR TETRA (Molecular Devices). IC50 values are determined using “Genedata Screener” analysis tool. The class given is cell-based. A general note: Calcium flux is commonly read through the fluorescence of an indicator in the cells.

Experiment [2] deals with T1, Lysophosphatidic acid receptor 3 (Homo sapiens, UniProt Q9UBY5).
T1 sequence (Q9UBY5 whole entry): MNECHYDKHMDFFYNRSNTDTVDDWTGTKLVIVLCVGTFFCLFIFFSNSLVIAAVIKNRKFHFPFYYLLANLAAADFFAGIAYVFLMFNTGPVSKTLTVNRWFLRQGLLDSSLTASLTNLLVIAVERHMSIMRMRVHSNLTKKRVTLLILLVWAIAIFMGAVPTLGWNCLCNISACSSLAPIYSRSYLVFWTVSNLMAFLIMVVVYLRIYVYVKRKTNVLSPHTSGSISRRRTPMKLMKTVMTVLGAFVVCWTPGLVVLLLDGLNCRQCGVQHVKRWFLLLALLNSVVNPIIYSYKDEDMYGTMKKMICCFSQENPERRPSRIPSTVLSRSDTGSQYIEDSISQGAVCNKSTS
Put plainly: LPAR3 Calcium Flux Assays: A cDNA encoding the human LPAR3 receptor is synthesized and cloned into pDNA3 expression plasmid. The plasmid is transfected in U2OS cells using Lipofectamine 2000 (Invitrogen Corp., USA). Clones stably expressing human LPAR3 are selected using neomycin and identified as cells that show Ca-influx in response to LPA.U2OS cells overexpressing human LPAR3 are seeded at 20,000-40,000 cells per well in a 96-well poly-D-lysine coated plate one day before the assay. Prior to the assay, the cells are washed once with assay buffer (HBSS containing 20 mM HEPES and 0.2% BSA) and then incubated in 50 μl of assay buffer for 60 minutes. Then 50 μl of a calcium indicator dye (Fluo-4 NW, Molecular Probes) are added to each well and incubation is continued for 30 minutes at 37° C. and then 30 minutes at room temperature. 50 μl of test compounds in 4% DMSO are added to the cells and incubation continued at room temperature for 40 minutes. Cells are stimulated by the addition of 50 μl of 128 nM LPA and intracellular calcium is measured using the FLIPR TETRA (Molecular Devices). IC50 values are determined using “Genedata Screener” analysis tool. The class given is cell-based.

Structures are written as SMILES. Where only a bound is given, the exact number is not on record here.

Chain of Lysophosphatidic acid receptor 1 (Q92633 whole entry): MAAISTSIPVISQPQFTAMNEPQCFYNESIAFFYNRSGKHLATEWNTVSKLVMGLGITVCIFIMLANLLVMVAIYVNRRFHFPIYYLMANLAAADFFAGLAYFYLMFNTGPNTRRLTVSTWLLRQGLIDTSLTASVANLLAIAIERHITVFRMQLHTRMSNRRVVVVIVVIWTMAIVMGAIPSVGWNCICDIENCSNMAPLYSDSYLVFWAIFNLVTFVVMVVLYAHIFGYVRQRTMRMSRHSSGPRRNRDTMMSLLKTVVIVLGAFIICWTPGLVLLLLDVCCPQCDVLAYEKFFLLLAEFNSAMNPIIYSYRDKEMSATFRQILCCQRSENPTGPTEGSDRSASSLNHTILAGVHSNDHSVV

As usually defined, the IC50 is the concentration that gives 50% inhibition. Regarding `Cn1ncc(-c2ccc(-c3ccc(C4(C(=O)O)CC4)c(C(F)(F)F)c3)cn2)c1Nc1cncc(OC2CC2)n1`, the IC50 in experiment [1] is 22 nM; in experiment [2], above 10000 nM.

These data come from ChEMBL document CHEMBL5729160, “Lysophosphatidic acid receptor 1 (LPAR1) inhibitor compounds” (2022).
